Test system: HGF/MET signaling
Assay: BM cell response to HGF after exosome pre-treatment: western blot of phospho-S6 kinase and phospho-ERK
Assay type: cell-based, mice
Settings: 20 nM, before HGF addition
From the text: Mice were sacrificed and BM was isolated by flushing the femur and tibia with staining media (1% BSA in PBS) using a 25G½″ needle (BD) and further disrupting it by pipeting. Cell suspensions were filtered through 70 μm cell strainers (BD) prior to centrifugation. Red blood cells (RBC) from BM suspensions were lysed using ACK Lysis Buffer (Invitrogen). To enrich for progenitors, lineage positive (Lin^+, i.e., CD5, CD45R, CD19, CD11b, Ly6G/C, 7-4, TER119 positive) BM cells were immunomagnetically depleted using the EasySep® Mouse Hematopoietic Progenitor Cell Enrichment Kit (Stem Cell Technologies) as per manufacturer's instructions. For in vitro BM treatment with exosomes, BM cells were flushed as above and cultured in Stem Span (Stem Cell Technologies) for 16 hours in the presence or absence of 20 μg/ml indicated exosomes. For HGF analysis BM cells were then stimulated with 5 ng/ml HGF (Peprotech) for 4 hours and collected for Western blot analysis in RIPA buffer as indicated below by adding phosphatase inhibitors (1 mM Sodium orthovanadate and 5 mM β-Glycerol phosphate). For MET signaling inhibition, cells were incubated with 20 nM Crizotinib (Selleck Bio) 1 hour before HGF stimulation.
Exosomes or cells were lysed with RIPA buffer containing a complete protease inhibitor tablet (Roche). Lysates were cleared by centrifugation at 14,000×g for 20 min. […]

## C[C@@H](Oc1cc(-c2cnn(C3CCNCC3)c2)cnc1N)c1c(Cl)ccc(F)c1Cl [Crizotinib]
  Phosphorylation of ERK after F10 exosome treatment: blocked the phosphorylation
  Phosphorylation of S6-kinase after F10 exosome treatment: blocked the phosphorylation

— patent publication US9816998B2, “Circulating exosomes as diagnostic/prognostic indicators and therapeutic targets of melanoma and other cancers” (Cornell University, priority 2011, dated 2017)
